{"source": "patent US20080234373A1", "about": "“Compound Useful For the Prevention and Treatment of Left Ventricular Hypertrophy in Dialysed Patients” (SIGMA-TAU INDUSTRIE FARMACEUTICHE RIUNITE S.P.A., priority 2005, published 2008)", "key": {"[1]": {"tested_on": "left ventricular (LV) muscle mass and LV systolic and diastolic function", "conditions": "58 patients with primary glomerulonephritis and moderate chronic renal failure; cited from earlier work"}, "[2]": {"tested_on": "left ventricular hypertrophy (LVH) in ESRD dialysed patients", "test": "Clinical trial of propionyl L-carnitine in ESRD patients on dialysis (multicentre, randomized, double-blind, placebo-controlled; echocardiography)", "assay_type": "in vivo", "protocol": "A clinical trial (multicentre, parallel, randomized, double-blind, dose-ranging placebo-controlled study in 300 patients) useful for evaluating both preventive and/or curative effect of the treatment with propionyl L-carnitine (3 and 6 mg/kg given intravenously three times a week at the end of the hemodyalisis session for 26 weeks) has been done.\nInclusion Criteria • 1) male or female out-patients aged >18 years, suffering from ESRD on bicarbonate dialysis three times a week; • 2) patients who have reached a certain degree of dialytic stability (at least since six months on dialysis), so that the variability due to the progressive patient adaptation of the therapeutic treatment is controlled, presenting no clinical signs of hydric overload at the end of dialysis; • 3) patients showing a degree of cardiac deterioration defined as inter-ventricular septum and left ventricular wall thickness >11 mm; • 4) patients with left ventricular ejection fraction >40%; • 5) patients under stable pharmacological treatment for at least three months; • 6) absence of acute ischaemic events (effort angina, unstable angina, AMI) during the last three months; • 7) presence of an adequate acoustic window and a good echogenicity; • 8) capacity of co-operating with the administered questionnaire. […]"}}}
{"compound": "C[C@H](CS)C(=O)N1CCC[C@H]1C(=O)O", "note": "[captopril]", "values": [{"measurement": "LV ejection fraction, early and late transmittal flow velocities and early to late LV inflow velocities ratio", "setting": "[1]", "value": "not significantly affected"}]}
{"compound": "CCOC(=O)[C@H](CCc1ccccc1)N[C@@H](C)C(=O)N1CCC[C@H]1C(=O)O", "note": "[enalapril]", "values": [{"measurement": "LV ejection fraction, early and late transmittal flow velocities and early to late LV inflow velocities ratio", "setting": "[1]", "value": "not significantly affected"}]}
{"compound": "CCC(=O)O[C@H](CC(=O)[O-])C[N+](C)(C)C", "note": "[propionyl L-carnitine]", "values": [{"measurement": "signs of LVH (a)-(c): left-ventricular septum and posterior wall thickness, end-systolic and end-diastolic size and volume, ejection fraction", "setting": "[2]; 3 and 6 mg/kg intravenously three times a week at end of hemodialysis for 26 weeks, preliminary ANOVA analysis, treated versus control group", "value": "useful for treating the signs of LVH"}, {"measurement": "progression of the signs of LVH (a)-(c) respect to base line", "setting": "[2]; 3 and 6 mg/kg intravenously three times a week for 26 weeks, T26 vs T0 in treated group, control group worsened", "value": "able to reduce the progression of the signs of LVH"}]}
